Publication PMC12081497, “Design, synthesis, and anti-breast cancer activity evaluation of novel 3-cyanopyridine derivatives as PIM-1 inhibitors” (Molecular Diversity, 2024)
Where two headings read alike, the source gives them in different places.

How the values were obtained:
[1] = tested on: MCF-7 human cancer cell line; test: In vitro anti-proliferative MTT assay; type: cell-based
Method: In the present study, all synthesized cyanopyridine hybrids were subjected to in vitro cytotoxicity testing using the MTT assay method against MCF-7 human cancer.
All cell lines were maintained in RPMI1640 medium containing 10% FBS at 37 °C in 5% CO2 humidified incubator. Cell proliferation assay was determined by the MTT (3-[4,5-dimethyl-2-thiazolyl]-2,5- diphenyl-2H-tetrazolium bromide) method. Briefly, cells were plated in triplicate wells (3–5 × 10^4 cells/well) of 96-well flat-bottomed plates and incubated overnight prior to drug exposure and then treated with different concentrations of the tested compounds for 48 h. After that, 20 μL of MTT reagent at a final concentration of 0.5 mg/mL was added to each well. Cells were then incubated for 2 h with MTT, after which 100 μL of DMSO solution was added to dissolve the formazan salt resulting from the reduction of MTT and the absorbance was read at 570 nm using an automatic plate reader. The IC50 values were calculated according to inhibition ratios from three independent experiments.

[2] = target: T1, PIM-1 kinase (Homo sapiens, UniProt P11309); conditions: cited from earlier work
T1 construct: purchased Promega V4032
T1 sequence (P11309 whole entry): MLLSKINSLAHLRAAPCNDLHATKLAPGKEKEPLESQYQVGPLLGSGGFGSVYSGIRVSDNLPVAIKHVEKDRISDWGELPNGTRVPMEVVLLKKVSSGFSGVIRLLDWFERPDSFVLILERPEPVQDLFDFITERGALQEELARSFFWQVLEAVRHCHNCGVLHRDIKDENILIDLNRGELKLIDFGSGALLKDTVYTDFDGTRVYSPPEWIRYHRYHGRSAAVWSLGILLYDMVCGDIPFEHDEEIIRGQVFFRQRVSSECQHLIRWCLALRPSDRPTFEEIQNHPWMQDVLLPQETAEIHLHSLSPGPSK

[3] = Homo sapiens, MCF7, 48 h, MTT, MCF-7, 48 h treatment, read-out: Cytotoxicity IC50, SD (±), MCF7
[4] = MTT, MCF-7, 48 h treatment, read-out: Cytotoxicity IC50, SD (±), MCF7

| Compound | IC50 [1] | IC50 [1, 3] | IC50 [1, 4] | melting point | IC50 [2] |
| --- | --- | --- | --- | --- | --- |
| 2-(4-(6-(4-Chlorophenyl)-3-cyano-2-oxo-1,2-dihydropyridin-4-yl)-2-methoxyphenoxy)-N-phenylacetamide [8d] | 18 ± 0.74 µM | – | – | – | – |
| COc1cc(-c2cc(-c3ccc[n+](C)c3)nc(OC)c2C#N)ccc1OCC(=O)Nc1ccccc1.[I-] [compound 10, 5-cyano-6-methoxy-4-(3-methoxy-4-(2-oxo-2-(phenylamino)ethoxy)phenyl)-1'-methyl-2,3'-bipyridin-1'-iumiodide] | – | 2.13 ± 0.09 µM | 2.14 ± 0.09 µM | 284 to 286 °C | – |
| COc1cc(-c2cc(-c3ccc4ccccc4c3)nc(OC)c2C#N)ccc1OCC(=O)Nc1ccccc1 [8f] | – | – | – | 193 to 195 °C | – |
| COc1cccc(-c2cc(-c3ccc(OCC(=O)Nc4ccccc4)c(OC)c3)c(C#N)c(=O)n2C)c1 [9b, 2-(4-(3-Cyano-6-(3-methoxyphenyl)-1-methyl-2-oxo-1,2-dihydropyridin-4-yl)-2-methoxyphenoxy)-N-phenylacetamide] | – | 8.79 ± 0.36 µM | 8.8 ± 0.36 µM | – | – |
| COc1cc(-c2cc(-c3ccco3)n(C)c(=O)c2C#N)ccc1OCC(=O)Nc1ccccc1 [9g, 2-(4-(3-Cyano-6-(furan-2-yl)-1-methyl-2-oxo-1,2-dihydropyridin-4-yl)-2-methoxyphenoxy)-N-phenylacetamide] | – | 13.2 ± 0.54 µM | – | 170 to 172 °C | – |
| COc1cc(-c2cc(-c3ccc(Br)cc3)n(C)c(=O)c2C#N)ccc1OCC(=O)Nc1ccccc1 [9e, 2-(4-(6-(4-Bromophenyl)-3-cyano-1-methyl-2-oxo-1,2-dihydropyridin-4-yl)-2-methoxyphenoxy)-N-phenylacetamide] | – | 18.3 ± 0.75 µM | – | – | – |
| COc1cc(-c2cc(-c3ccc4ccccc4c3)[nH]c(=O)c2C#N)ccc1OCC(=O)Nc1ccccc1 [7j, 2-(4-(3-Cyano-6-(naphthalen-2-yl)-2-oxo-1,2-dihydropyridin-4-yl)-2-methoxyphenoxy)-N-phenylacetamide] | – | 20.1 ± 0.83 µM | – | > 300 °C | – |
| COc1cc(-c2cc(-c3ccco3)[nH]c(=O)c2C#N)ccc1OCC(=O)Nc1ccccc1 [7f, 2-(4-(3-Cyano-6-(furan-2-yl)-2-oxo-1,2-dihydropyridin-4-yl)-2-methoxyphenoxy)-N-phenylacetamide] | – | 3.98 µM | 3.98 ± 0.16 µM | 296 to 298 °C | – |
| COc1cc(-c2cc(-c3ccco3)nc(OC)c2C#N)ccc1OCC(=O)Nc1ccccc1 [8g, 2-(4-(3-Cyano-6-(furan-2-yl)-2-methoxypyridin-4-yl)-2-methoxyphenoxy)-N-phenyl acetamide] | – | 21.3 ± 0.87 µM | – | 178 to 180 °C | – |
| COc1cccc2c1C(=O)c1c(O)c3c(c(O)c1C2=O)C[C@@](O)(C(=O)CO)C[C@@H]3O[C@H]1C[C@H](N)[C@H](O)[C@H](C)O1 [Doxorubicin, reference compound] | – | 11.5 ± 0.47 µM | 11.5 ± 0.47 µM | – | – |
| COc1nc(-c2ccc(OCc3ccccc3)cc2)cc(-c2ccc(N(C)C)cc2)c1C#N [F] | – | – | – | – | 0.13 µM |
| COc1cc(-c2cc(-c3cccs3)[nH]c(=O)c2C#N)ccc1OCC(=O)Nc1ccccc1 [7g, 2-(4-(3-Cyano-2-oxo-6-(thiophen-2-yl)-1,2-dihydropyridin-4-yl)-2-methoxyphenoxy)-N-phenylacetamide] | – | 1.92 ± 0.08 µM | 1.93 ± 0.08 µM | 293 to 295 °C | – |
| 2-(4-(6-(4-Chlorophenyl)-3-cyano-2-oxo-1,2-dihydropyridin-4-yl)-2-methoxyphenoxy)-N-phenylacetamide [9d] | 2.05 µM | – | – | – | – |
| COc1cc(-c2cc(-c3ccccc3)[nH]c(=O)c2C#N)ccc1OCC(=O)Nc1ccccc1 [7a, 2-(4-(3-Cyano-2-oxo-6-phenyl-1,2-dihydropyridin-4-yl)-2-methoxyphenoxy)-Nphenylacetamide] | – | 8.06 ± 0.33 µM | 8.06 ± 0.33 µM | 276 to 278 °C | – |
| COc1ccc(-c2cc(-c3ccc(OCC(=O)Nc4ccccc4)c(OC)c3)c(C#N)c(=O)[nH]2)cc1 [7c, 2-(4-(3-Cyano-6-(4-methoxyphenyl)-2-oxo-1,2-dihydropyridin-4-yl)-2-methoxyphenoxy)-N-phenylacetamide] | – | 7.72 ± 1.69 µM | 7.73 ± 0.32 µM | 284 to 286 °C | – |
| COc1cc(-c2cc(-c3ccc4ccccc4c3)n(C)c(=O)c2C#N)ccc1OCC(=O)Nc1ccccc1 [9f, 2-(4-(3-Cyano-1-methyl-6-(naphthalen-2-yl)-2-oxo-1,2-dihydropyridin-4-yl)-2-methoxyphenoxy)-N-phenylacetamide] | – | 41.4 ± 1.7 µM | – | 193 to 195 °C | – |
| COc1cc(-c2cc(-c3ccc(Cl)cc3)[nH]c(=O)c2C#N)ccc1OCC(=O)Nc1ccccc1 [7d, 2-(4-(6-(4-Chlorophenyl)-3-cyano-2-oxo-1,2-dihydropyridin-4-yl)-2methoxyphenoxy)-N-phenylacetamide] | – | 41.1 ± 1.69 µM | – | 276 to 278 °C | – |
| COc1cc(-c2cc(-c3ccc(Br)cc3)[nH]c(=O)c2C#N)ccc1OCC(=O)Nc1ccccc1 [7e, 2-(4-(6-(4-Bromophenyl)-3-cyano-2-oxo-1,2-dihydropyridin-4-yl)-2-methoxyphenoxy)-N-phenylacetamide] | – | 21.9 ± 0.9 µM | – | – | – |
| N#CC1=C(c2cc3ccccc3nc2Cl)C=C(c2ccc(Br)cc2)NC1Cl (stereo not drawn) [C] | – | – | – | – | 0.46 µM |
| COc1ccc(-c2cc(-c3ccc(OCC(=O)Nc4ccccc4)c(OC)c3)c(C#N)c(=O)n2C)cc1 [9c, 2-(4-(3-Cyano-6-(4-methoxyphenyl)-1-methyl-2-oxo-1,2-dihydropyridin-4-yl)-2-methoxyphenoxy)-N-phenylacetamide] | – | 26.1 ± 1.07 µM | – | – | – |
| 2-(4-(3-Cyano-2-oxo-6-phenyl-1,2-dihydropyridin-4-yl)-2-methoxyphenoxy)-N-phenylacetamide [8a] | 14.3 ± 0.59 µM | – | – | – | – |
| COc1cccc(-c2cc(-c3ccc(OCC(=O)Nc4ccccc4)c(OC)c3)c(C#N)c(OC)n2)c1 [8b, 2-(4-(3-Cyano-2-methoxy-6-(3-methoxyphenyl)-pyridin-4-yl)-2-methoxy-phenoxy)-N-phenylacetamide] | – | 36.2 ± 1.49 µM | – | 158 to 160 °C | – |
| COc1cc(-c2cc(-c3ccc(Br)cc3)nc(OC)c2C#N)ccc1OCC(=O)Nc1ccccc1 [8e, 2-(4-(6-(4-Bromophenyl)-3-cyano-2-methoxypyridin-4-yl)-2-methoxyphenoxy)-N-phenylacetamide] | – | 42.6 ± 1.75 µM | – | – | – |
| COc1cccc(-c2cc(-c3ccc(OCC(=O)Nc4ccccc4)c(OC)c3)c(C#N)c(=O)[nH]2)c1 [7b, 2-(4-(3-Cyano-6-(3-methoxyphenyl)-2-oxo-1,2-dihydropyridin-4-yl)-2methoxyphenoxy)-N-phenylacetamide] | – | 56.8 ± 2.34 µM | – | – | – |
| COc1ccc(-c2cc(-c3ccc(OCC(=O)Nc4ccccc4)c(OC)c3)c(C#N)c(OC)n2)cc1 [8c, 2-(4-(3-Cyano-2-methoxy-6-(4-methoxyphenyl)pyridin-4-yl)-2-methoxyphenoxy)-N-phenylacetamide] | – | 3.74 ± 0.15 µM | 3.75 ± 0.15 µM | 188 to 190 °C | – |
| COc1cc(-c2cc(-c3ccncc3)[nH]c(=O)c2C#N)ccc1OCC(=O)Nc1ccccc1 [7i, 2-(4-(3-Cyano-2-oxo-6-(pyridin-4-yl)-1,2-dihydropyridin-4-yl)-2-methoxyphenoxy)-N-phenylacetamide] | – | 23.9 ± 0.98 µM | – | – | – |
| COc1cc(-c2cc(-c3ccccc3)n(C)c(=O)c2C#N)ccc1OCC(=O)Nc1ccccc1 [9a, 2-(4-(3-Cyano-1-methyl-2-oxo-6-phenyl-1,2-dihydropyridin-4-yl)-2-methoxyphenoxy)-N-phenylacetamide] | – | 9.1 ± 0.37 µM | 9.1 ± 0.37 µM | – | – |
